# Source: patent publication US11154540B2, “Methods of treating ophthalmic disease/disorder or injury with ibudilast” (MediciNova, Inc., priority 2018, dated 2021)
# “Also recorded” adds a separate entry of the source.
# Legend:
# [1] = tested on: subjects with primary or secondary progressive multiple sclerosis; test: Optical coherence tomography (OCT) outcomes in the SPRINT-MS phase II randomized, double-blind, placebo-controlled trial; type: in vivo, human
# Protocol: This was a multicenter, randomized, double-blind, placebo-controlled, parallel-group study designed to evaluate the safety, tolerability and activity of ibudilast administered twice daily over a 96 week period in subjects with primary or secondary progressive multiple sclerosis. The primary objectives of the study were: • to evaluate the activity of ibudilast (100 mg/d) versus placebo at 96 weeks as measured by quantitative magnetic resonance imaging (MRI) analysis for whole brain atrophy using brain parenchymal fraction (BPF); • to evaluate the safety and tolerability of ibudilast (100 mg/d) versus placebo administered orally in subjects with primary and secondary progressive multiple sclerosis; and • to study the effect of ibudilast on macular measures from the SPRINT-MS phase II trial of ibudilast in progressive MS. The major secondary objectives were to evaluate the activity of ibudilast at 96 weeks versus placebo as measured by: • Diffusion tensor imaging (DTI) in descending pyramidal white matter tracts; • Magnetization transfer ratio (MTR) imaging in normal-appearing brain tissue; • Retinal nerve fiber layer as measured by Optical coherence tomography (OCT); and • Cortical atrophy as measured by cortical longitudinal atrophy detection algorithm ([…] total of 255 male and female subjects from 21 to 65 years old, inclusive, were enrolled into one of two treatment arms (ibudilast 100 mg/d or matching-placebo). Study population for SPRINT-MS was a mix of primary (53%) and secondary progressive (47%) MS, average age 56 years and median expanded disability status scale (EDSS)=6.0 at baseline. Randomization of subjects was stratified by disease status ([…]), and by immunomodulating therapy status: “untreated”, glatiramer acetate (GA), or interferon-beta. Subjects were allowed to continue using of interferon-beta (IFN-β) or glatiramer acetate while participating in this study. During the study, subjects were allowed to change medications from one injectable to the other. Pegylated interferon beta-1 were also allowed (if approved by the FDA). Inhaled and topical steroids are allowed. If a relapse episode occurred, a single course of systemic corticosteroids was permitted, as prescribed by the treating neurologist. Subjects returned to the clinic for follow-up visits on a regular basis at Week 4, 8, 12, 24, 36, 48, 60, 72, 84 and 96. The double-blind Treatment Phase consisted of a Baseline visit followed by 10 scheduled clinic visits. The Baseline Visit had to have occurred within 45 days following the Screening Visit. At the Baseline Visit (Day 1), subjects who completed all of the screening assessments and continued to meet eligibility criteria were randomized to one of two treatment groups (ibudilast 100 mg/d or placebo) in a 1:1 ratio. […] Subjects took their first dose of study medication (30 mg ibudilast or placebo) on the evening of the Baseline Visit (Day 1). On the morning of Day 2, all subjects begun a 3 capsule BID dosing regimen through Day 14. Subjects randomized to ibudilast started at 60 mg/d (30 mg BID) on Day 2 and remained on 60 mg/d through Day 14. Beginning on Day 15, all subjects increased dosing to 5 capsules BID regimen; those randomized to the ibudilast treatment arm were taking 100 mg/d. After Day 15, subjects with intolerable side-effects (e.g., nausea, diarrhea, vertigo) were allowed to reduced their dose to either 4 capsules twice a day (80 mg/d for those taking ibudilast) or 3 capsules twice a day (60 mg/d for those taking ibudilast). Subjects with intolerable side-effects (e.g., nausea, diarrhea, vertigo) at the end of Day 14 were allowed to continue taking 3 capsules twice a day at the Investigator's discretion. At the Investigator's discretion, the daily dose of ibudilast were potentially adjusted between 3 capsules twice a day, 4 capsules twice a day, and 5 capsules twice a day over the first 8 weeks of treatment. […]
# [2] = Sanftner et al., Xenobiotica 2009 39: 964-977; cited from earlier work
structure (smiles),measurement,setting,value
"CC(C)C(=O)c1c(C(C)C)nn2ccccc12 [ibudilast, 3-isobutyryl-2-isopropylpyrazolo[1,5-a]pyridine]",macular volume loss and GCIP layer thinning (in words),[1]; Cirrus OCT,favorable changes towards reduced macular volume loss and GCIP layer thinning
same,"rate of macular volume loss, between-group difference per year","[1]; Cirrus OCT, ibudilast vs placebo, 95% CI: −0.0090 to 0.0499",0.0204 mm^3
same,"ganglion cell-inner plexiform layer thinning, between-group difference per year","[1]; Cirrus OCT, ibudilast vs placebo, 95% CI: −0.1189 to 1.0578",0.469 µm/year
same,annual macular volume loss compared to placebo (in words),[1]; Spectralis OCT over 96 weeks,slower
same,"rate of macular volume loss, between-group difference per year","[1]; Spectralis OCT, ibudilast vs placebo, 95% CI: 0.0008 to 0.0623",0.0316 mm^3
same,estimated rate of macular volume change per year,"[1]; patients followed with Cirrus OCT, 95% CI: −0.02167 to 0.020866, placebo −0.02083, p=0.1734",−0.0004 mm^3
same,estimated rate of macular volume change per year,"[1]; patients followed with Spectralis OCT, 95% CI: −0.02693 to 0.01688, placebo −0.03659, p=0.044",−0.00503 mm^3
same,CNS distribution / penetration (in words),[2],distributes well to the CNS; also recorded: good CNS penetration
